From patent US7442802B2, “Cyclooxygenase-2 selective inhibitors, compositions and methods of use” (NitroMed, Inc., priority 2002, dated 2008)
Where two headings read alike, the source gives them in different places.

Columns and labels:
COX-2 = biological target: T1, COX-2 (Homo sapiens, UniProt P35354); test: Human COX-2 enzyme activity in human whole blood (LPS-induced, thromboxane B2 EIA); assay type: cell-based; details: for inhibition at 1 µM: read-out: COX-2 Inhibition (% at 1 μM); for inhibition at 10 µM: read-out: COX-2 Inhibition (% at 10 μM)
T1 construct: To induce COX-2, lipopolysaccharide (LPS) from E. coli; endogenous in cells; host or cells: heparinised human whole blood from donors, with COX-2 induced by E. coli LPS
T1 sequence (P35354 18-604): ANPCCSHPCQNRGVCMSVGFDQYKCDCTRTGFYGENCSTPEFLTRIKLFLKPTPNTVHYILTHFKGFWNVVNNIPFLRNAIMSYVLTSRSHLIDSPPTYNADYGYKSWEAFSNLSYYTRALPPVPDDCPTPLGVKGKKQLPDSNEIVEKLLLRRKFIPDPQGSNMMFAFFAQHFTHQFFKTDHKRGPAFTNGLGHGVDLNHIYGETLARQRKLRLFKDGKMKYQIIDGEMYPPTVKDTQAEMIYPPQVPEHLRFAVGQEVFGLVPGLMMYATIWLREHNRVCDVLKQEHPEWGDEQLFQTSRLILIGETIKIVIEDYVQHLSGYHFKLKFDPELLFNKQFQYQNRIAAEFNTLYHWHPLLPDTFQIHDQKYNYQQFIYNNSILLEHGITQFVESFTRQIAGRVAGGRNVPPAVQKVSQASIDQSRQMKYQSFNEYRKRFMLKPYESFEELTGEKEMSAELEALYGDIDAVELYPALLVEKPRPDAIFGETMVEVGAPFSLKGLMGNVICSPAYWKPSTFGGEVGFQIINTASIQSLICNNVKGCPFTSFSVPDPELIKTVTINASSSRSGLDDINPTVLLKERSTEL
Procedure: (§1) The blood was transported to the laboratory on ice packs and used within 1.5 hours of collection. Upon receipt in the laboratory, the blood was allowed to come to room temperature for 15 minutes prior to distribution in 1 mL aliquots per well of 24 well tissue culture plates. […] Test compounds were dissolved in DMSO, at 1000 fold the final desired concentration, and further diluted, as indicated, in DMSO. One μL of each dilution of the test compound was added per well, in duplicate wells; wells not receiving test compound (e.g., basal, background or control wells) received 1 μL DMSO. […] Louis, Mo., Catalogue No. […] Louis, Mo., Catalogue No. […] (Again, basal, background or control wells not stimulated with A23187 received 1 μL of DMSO.) At 5 hours after the addition of the test compound, all incubations were terminated by placement on ice and the addition of 2 mM EGTA (100 μL of 20 mM EGTA, tetrasodium, in PBS (phosphate buffered saline) without Ca^++ and Mg^++, pH 7.2)). […] One hundred μL of plasma was removed from each blood sample and added to 1 mL of methanol in new 15 mL polypropylene centrifuge tubes, vortexed, and stored overnight at -20° C. […] The samples were assayed for thromboxane B2 using EIA kits supplied by Cayman Chemical Co. […] The % inhibition for COX-1 and COX-2 enzyme activity in human whole blood by the test compounds, at the indicated concentrations, are given in Table 1.

COX-1 = biological target: T2, COX-1 (Homo sapiens, UniProt P23219); test: Human COX-1 enzyme activity in human whole blood (A23187-stimulated, thromboxane B2 EIA); assay type: cell-based; details: for inhibition at 100 µM: read-out: COX-1 Inhibition (% at 100 μM)
T2 construct: endogenous in cells; host or cells: heparinised human whole blood from donors, stimulated with the calcium ionophore A23187
Procedure: as §1

[1] = 1 μM, human whole blood, LPS induction
[2] = 10 μM, human whole blood, LPS induction
[3] = 100 μM, human whole blood, A23187 stimulation

T2 sequence (P23219 24-599): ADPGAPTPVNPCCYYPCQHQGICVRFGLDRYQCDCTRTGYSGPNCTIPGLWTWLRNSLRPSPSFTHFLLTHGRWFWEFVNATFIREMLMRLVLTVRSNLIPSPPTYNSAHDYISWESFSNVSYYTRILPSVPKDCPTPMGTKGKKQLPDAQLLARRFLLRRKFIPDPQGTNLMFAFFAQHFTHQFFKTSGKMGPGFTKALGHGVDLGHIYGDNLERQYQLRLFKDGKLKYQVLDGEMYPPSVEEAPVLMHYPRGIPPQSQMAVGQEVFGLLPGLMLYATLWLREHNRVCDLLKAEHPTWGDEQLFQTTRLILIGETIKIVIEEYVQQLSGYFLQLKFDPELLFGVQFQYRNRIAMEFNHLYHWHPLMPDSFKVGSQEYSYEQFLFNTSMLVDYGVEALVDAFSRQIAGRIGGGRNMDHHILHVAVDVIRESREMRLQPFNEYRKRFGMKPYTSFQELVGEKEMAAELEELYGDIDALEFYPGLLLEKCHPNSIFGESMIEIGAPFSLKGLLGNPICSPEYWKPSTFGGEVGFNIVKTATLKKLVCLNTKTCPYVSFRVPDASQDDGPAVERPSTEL

| inhibition at 1 µM (COX-2; [1]) [%] | inhibition at 10 µM (COX-2; [2]) [%] | inhibition at 100 µM (COX-1; [3]) [%] | Compound | other results |
| --- | --- | --- | --- | --- |
| 20 | 90 | 70 | Cc1ccc(-n2nc(COCCCO)cc2-c2ccc(S(C)(=O)=O)cc2)cc1 [Example 8d, 1-(3-((3-Hydroxypropoxy)methyl)-1-(4-methylphenyl)pyrazol-5-yl)-4-(methylsulfonyl)benzene] | – |
| 15 | 45 | 0 | Cc1ccc(-n2nc(C(=O)CCCO)cc2-c2ccc(S(C)(=O)=O)cc2)cc1 [Example 12d, 4-Hydroxy-1-(1-(4-methylphenyl)-5-(4-(methylsulfonyl)phenyl)pyrazol-3-yl)butan-1-one] | – |
| 30 | 85 | 40 | CS(=O)(=O)c1ccc(-c2cc(COCCCO)nn2-c2ccc(C(F)(F)F)cc2)cc1 [Example 9d, 1-(3-((3-Hydroxypropoxy)methyl)-1-(4-(trifluoromethyl)phenyl)pyrazol-5-yl)-4-(methylsulfonyl)benzene] | – |
| 50 | 85 | 40 | CS(=O)(=O)c1ccc(-c2cc(C(F)(F)OCCCO)nn2-c2ccccc2)cc1 [Example 6e, 1-(3-(Difluoro(3-hydroxypropoxy)methyl)-1-phenylpyrazol-5-yl)-4-(methylsulfonyl)benzene] | – |
| – | – | – | CS(=O)(=O)c1ccc(-c2cc(/C=C\CCO)nn2-c2ccccc2)cc1 [Example 11d] | COX-2 Inhibition (% at 1 μM) (COX-2; [1]): 0%; COX-2 Inhibition (% at 10 μM) (COX-2; [2]): 30%; COX-1 Inhibition (% at 100 μM) (COX-1; [3]): 25% |
| 55 | 90 | 85 | CS(=O)(=O)c1ccc(-c2cc(/C=C/CCO[N+](=O)[O-])nn2-c2ccccc2)cc1 [Example 11f, 1-(3-((1E)-4-(Nitrooxy)but-1-enyl)-1-phenylpyrazol-5-yl)-4-(methylsulfonyl)benzene] | – |
| 0 | 40 | 10 | CS(=O)(=O)c1ccc(-c2cc(COCCO)nn2C2CCCCC2)cc1 [Example 15d, 1-(1-Cyclohexyl-3-((2-hydroxyethoxy)methyl)pyrazol-5-yl)-4-(methylsulfonyl)benzene] | – |
| 25 | 80 | 40 | CS(=O)(=O)c1ccc(-c2cc(C(=O)CCCCCO)nn2C2CCCCC2)cc1 [Example 22c, 1-(1-Cyclohexyl-5-(4-(methylsulfonyl)phenyl)-pyrazol-3-yl)-6-hydroxyhexan-1-one] | – |
| 25 | 100 | 100 | COc1ccc(-n2nc(COCCCO)cc2-c2ccc(S(C)(=O)=O)cc2)cc1 [Example 10d, 1-(3-((3-Hydroxypropoxy)methyl)-1-(4-methoxyphenyl)pyrazol-5-yl)-4-(methylsulfonyl)benzene] | – |
| 25 | 95 | 80 | CS(=O)(=O)c1ccc(-c2cc(COCCCO)nn2-c2ccc(Cl)cc2)cc1 [Example 7d, 1-(1-(4-Chlorophenyl)-3-((3-hydroxypropoxy)methyl)pyrazol-5-yl)-4-(methylsulfonyl)benzene] | – |
| 30 | 65 | 85 | CS(=O)(=O)c1ccc(-c2cc(CCCC(=O)OCCCO[N+](=O)[O-])nn2-c2ccc(C(F)(F)F)cc2)cc1 [Example 47f, 3-(Nitrooxy)propyl 4-(5-(4-(methylsulfonyl)phenyl)-1-(4-(trifluoromethyl)-phenyl)pyrazol-3-yl)butanoate] | – |
| 0 | 15 | 10 | CS(=O)(=O)c1ccc(-c2cc(/C=C/CO)nn2C2CCCCC2)cc1 [Example 31c, 4-(3-((1E)-3-Hydroxyprop-1-enyl)-1-cyclohexylpyrazol-5-yl)-1(methylsulfonyl)benzene] | – |
| – | – | – | CS(=O)(=O)c1ccc(-c2cc(C(=O)CO[N+](=O)[O-])nn2-c2ccccn2)cc1 [Example 35c, 1-(5-(4-(Methysulfonyl)phenyl)-1-(2-pyridyl)pyrazol-3-yl)-2-(nitrooxy)ethan-1-one] | COX-2 Inhibition (% at 1 μM) (COX-2; [1]): 25%; COX-2 Inhibition (% at 10 μM) (COX-2; [2]): 30%; COX-1 Inhibition (% at 100 μM) (COX-1; [3]): 0% |
| – | – | – | NS(=O)(=O)c1ccc(-c2c(-c3ccccc3)noc2COCC(F)(F)C(F)(F)C(F)(F)CO)cc1 [Example 34a, 4-(5-((2,2,3,3,4,4-Hexafluoro-5-hydroxypentyloxy)methyl)-3-phenylisoxazol-4-yl)benzenesulfonamide] | inhibition at 1 µM (COX-2): 90%; inhibition at 10 µM (COX-2): 100%; inhibition at 100 µM (COX-1): 95% |
| – | – | – | CS(=O)(=O)c1ccc(-c2cc(CO)nn2C2CCCCCCC2)cc1 [Example 1g] | COX-2 Inhibition (% at 1 μM) (COX-2; [1]): 35%; COX-2 Inhibition (% at 10 μM) (COX-2; [2]): 75%; COX-1 Inhibition (% at 100 μM) (COX-1; [3]): 35% |
| 25 | 25 | 0 | CS(=O)(=O)c1ccc(-c2cc(C(=O)CCCO)nn2-c2ccc(F)cc2)cc1 [Example 13d, 1-(1-(4-Fluorophenyl)-5-(4-(methylsulfonyl)phenyl)pyrazol-3-yl)-4-hydroxybutan-1-one] | – |
| 95 | 100 | 90 | CS(=O)(=O)c1ccc(-c2cc(/C=C\CCO[N+](=O)[O-])nn2-c2ccccc2)cc1 [Example 11e, 1-(3-((1Z)-4-(Nitrooxy)but-1-enyl)-1-phenylpyrazol-5-yl)-4-(methylsulfonyl)benzene] | – |
| – | – | – | 4-(5-(4-Chlorophenyl)-3-((3-hydroxypropoxy)methyl)pyrazolyl)benzenesulfonamide [Example 28a] | COX-2 Inhibition (% at 1 μM) (COX-2; [1]): 30%; COX-2 Inhibition (% at 10 μM) (COX-2; [2]): 55%; COX-1 Inhibition (% at 100 μM) (COX-1; [3]): 30% |
| 20 | 80 | 25 | CS(=O)(=O)c1ccc(-c2cc(COCCCO)nn2-c2ccccc2)cc1 [Example 5d, 4-(3-((3-Hydroxypropoxy)methyl)-1-phenylpyrazol-5-yl)-1-(methylsulfonyl)benzene] | – |
| 15 | 75 | -20 | NS(=O)(=O)c1ccc(-c2c(-c3ccccc3)noc2COCC(F)(F)CO)cc1 [Example 32c, 4-(5-((2,2-Difluoro-3-hydroxypropoxy)methyl)-3-phenylisoxazol-4-yl)benzenesulfonamide] | – |
| 35 | 90 | 50 | NS(=O)(=O)c1ccc(-c2c(-c3ccccc3)noc2COCCS(=O)(=O)CCO)cc1 [Example 37b, 4-(5-((2-((2-Hydroxyethyl)sulfonyl)ethoxy)methyl)-3-phenylisoxazol-4-yl)benzenesulfonamide] | – |
| – | – | – | NS(=O)(=O)c1ccc(-c2c(-c3ccccc3)noc2COCCCO)cc1 [Example 26a] | COX-2 Inhibition (% at 1 μM) (COX-2; [1]): 50%; COX-2 Inhibition (% at 10 μM) (COX-2; [2]): 85%; COX-1 Inhibition (% at 100 μM) (COX-1; [3]): 25% |
| – | – | – | NS(=O)(=O)c1ccc(-c2c(-c3ccccc3)noc2COCC(F)(F)CO[N+](=O)[O-])cc1 [Example 32d, 4-(5-((2,2-Difuoro-3-(nitrooxy)propoxy)methyl)-3-phenylisoxazol-4-yl)benzenesulfoamide] | COX-2 Inhibition (% at 1 μM) (COX-2; [1]): 20%; COX-2 Inhibition (% at 10 μM) (COX-2; [2]): 85%; COX-1 Inhibition (% at 100 μM) (COX-1; [3]): 0% |
| – | – | – | CS(=O)(=O)c1ccc(-c2cc(/C=C/CCO)nn2C2CCCCC2)cc1 [Example 21b] | COX-2 Inhibition (% at 1 μM) (COX-2; [1]): 10%; COX-2 Inhibition (% at 10 μM) (COX-2; [2]): 25%; COX-1 Inhibition (% at 100 μM) (COX-1; [3]): 10% |
| 50 | 95 | 90 | Cc1ccc(-n2nc(COCCCO[N+](=O)[O-])cc2-c2ccc(S(C)(=O)=O)cc2)cc1 [Example 8e, 1-(1-(4-methylphenyl)-3-((3-(nitrooxy)propoxy)methyl)pyrazol-5-yl)-4-(methylsulfonyl)benzene] | – |
